Test results reported in ChEMBL document CHEMBL6114992, “Design, synthesis, biological evaluation, and mechanism of action of new pyrazines as anticancer agents in vitro and in vivo” (Bioorg Med Chem, 2025).
Calls of active or inactive are those of the source. The rule behind the calls is not given here.

Legend:
U-937 [1] = experiment: Induction of apoptosis in human U-937 cells assessed as change in mitochondrial membrane potential at 1 uM incubated for 48 hrs by JC-1 staining based flow cytometry (reference value: 2.20 %); assay type: functional
U-937 [2] = experiment: Induction of apoptosis in human U-937 cells assessed as early apoptotic cells at 1 uM incubated for 48 hrs by Annexin V-FITC/PI staining based flow cytometry (reference value: 2.72 %); assay type: functional
U-937 [3] = experiment: Downregulation of YAP1 expression in human U-937 cells incubated for 48 hrs by Western blot analysis; assay type: functional, cell-based; settings: dose 1-5 µM
U-937 [4] = experiment: Induction of apoptosis in human U-937 cells assessed as late apoptotic cells at 0.5 uM incubated for 48 hrs by Annexin V-FITC/PI staining based flow cytometry (reference value: 1.96 %); assay type: functional
U-937 [5] = experiment: Induction of apoptosis in human U-937 cells assessed as viable cells at 0.5 uM incubated for 48 hrs by Annexin V-FITC/PI staining based flow cytometry (reference value: 93.30 %); assay type: functional; settings: read-out: Activity
U-937 [6] = experiment: Antiproliferative activity against human U-937 cells assessed as inhibition of cell growth incubated for 72 hrs by MTT assay; assay type: functional, cell-based; settings: U-937, 72 h
U-937 [7] = experiment: Induction of apoptosis in human U-937 cells assessed as necrotic cells at 1 uM incubated for 48 hrs by Annexin V-FITC/PI staining based flow cytometry (reference value: 2.03 %); assay type: functional
U-937 [8] = experiment: Downregulation of Bcl-2 expression in human U-937 cells incubated for 48 hrs by Western blot analysis; assay type: functional, cell-based
U-937 [9] = experiment: Induction of apoptosis in human U-937 cells assessed as late apoptotic cells at 1 uM incubated for 48 hrs by Annexin V-FITC/PI staining based flow cytometry (reference value: 1.96 %); assay type: functional
U-937 [10] = experiment: Induction of apoptosis in human U-937 cells assessed as early apoptotic cells at 2.5 uM incubated for 48 hrs by Annexin V-FITC/PI staining based flow cytometry (reference value: 2.72 %); assay type: functional
KG-1 = experiment: Antiproliferative activity against human KG-1 cells assessed as inhibition of cell growth incubated for 72 hrs by MTT assay; assay type: functional, cell-based; settings: KG-1, 72 h
U-937 [11] = experiment: Downregulation of XIAP expression in human U-937 cells incubated for 48 hrs by Western blot analysis; assay type: functional, cell-based
U-937 [12] = experiment: Downregulation of c-Myc expression in human U-937 cells incubated for 48 hrs by Western blot analysis; assay type: functional, cell-based; settings: dose 1-5 µM
U-937 [13] = experiment: Induction of apoptosis in human U-937 cells assessed as change in mitochondrial membrane potential at 5 uM incubated for 48 hrs by JC-1 staining based flow cytometry (reference value: 2.20 %); assay type: functional
U-937 [14] = experiment: Induction of apoptosis in human U-937 cells assessed as change in mitochondrial membrane potential at 2.5 uM incubated for 48 hrs by JC-1 staining based flow cytometry (reference value: 2.20 %); assay type: functional
U-937 [15] = experiment: Induction of apoptosis in human U-937 cells assessed as viable cells at 2.5 uM incubated for 48 hrs by Annexin V-FITC/PI staining based flow cytometry (reference value: 93.30 %); assay type: functional; settings: read-out: Activity
SK-OV-3 = experiment: Antiproliferative activity against human SK-OV-3 cells assessed as inhibition of cell growth incubated for 72 hrs by MTT assay; assay type: functional, cell-based; settings: SK-OV-3, 72 h
U-937 [16] = experiment: Upregulation of p21 expression in human U-937 cells incubated for 48 hrs by Western blot analysis; assay type: functional, cell-based
U-937 [17] = experiment: Downregulation of Bcl-XL expression in human U-937 cells incubated for 48 hrs by Western blot analysis; assay type: functional, cell-based; settings: dose 1-5 µM
THP-1 = experiment: Antiproliferative activity against human THP-1 cells assessed as inhibition of cell growth incubated for 72 hrs by MTT assay; assay type: functional, cell-based; settings: THP-1, 72 h
[18] = molecular target: Signal transducer and activator of transcription 3 (Homo sapiens) (UniProt P40763); experiment: Inhibition of STAT3 phosphorylation in human U-937 cells at 1 to 5 uM incubated for 48 hrs by Western blot analysis; assay type: cell-based; settings: dose 1-5 µM
U-937 [19] = experiment: Induction of apoptosis in human U-937 cells assessed as viable cells at 1 uM incubated for 48 hrs by Annexin V-FITC/PI staining based flow cytometry (reference value: 93.30 %); assay type: functional; settings: read-out: Activity
U-937 [20] = experiment: Induction of apoptosis in human U-937 cells assessed as necrotic cells at 0.5 uM incubated for 48 hrs by Annexin V-FITC/PI staining based flow cytometry (reference value: 2.03 %); assay type: functional
U-937 [21] = experiment: Induction of apoptosis in human U-937 cells assessed as late apoptotic cells at 2.5 uM incubated for 48 hrs by Annexin V-FITC/PI staining based flow cytometry (reference value: 1.96 %); assay type: functional
[22] = Antiproliferative activity against human SK-OV-3/Taxol cells assessed as inhibition of cell growth incubated for 72 hrs by MTT assay; assay type: functional, cell-based; settings: SK-OV-3, 72 h
U-937 [23] = experiment: Induction of apoptosis in human U-937 cells assessed as necrotic cells at 2.5 uM incubated for 48 hrs by Annexin V-FITC/PI staining based flow cytometry (reference value: 2.03 %); assay type: functional
U-937 [24] = experiment: Induction of apoptosis in human U-937 cells assessed as early apoptotic cells at 0.5 uM incubated for 48 hrs by Annexin V-FITC/PI staining based flow cytometry (reference value: 2.72 %); assay type: functional

Signal transducer and activator of transcription 3 (Homo sapiens), sequence (P40763 whole entry): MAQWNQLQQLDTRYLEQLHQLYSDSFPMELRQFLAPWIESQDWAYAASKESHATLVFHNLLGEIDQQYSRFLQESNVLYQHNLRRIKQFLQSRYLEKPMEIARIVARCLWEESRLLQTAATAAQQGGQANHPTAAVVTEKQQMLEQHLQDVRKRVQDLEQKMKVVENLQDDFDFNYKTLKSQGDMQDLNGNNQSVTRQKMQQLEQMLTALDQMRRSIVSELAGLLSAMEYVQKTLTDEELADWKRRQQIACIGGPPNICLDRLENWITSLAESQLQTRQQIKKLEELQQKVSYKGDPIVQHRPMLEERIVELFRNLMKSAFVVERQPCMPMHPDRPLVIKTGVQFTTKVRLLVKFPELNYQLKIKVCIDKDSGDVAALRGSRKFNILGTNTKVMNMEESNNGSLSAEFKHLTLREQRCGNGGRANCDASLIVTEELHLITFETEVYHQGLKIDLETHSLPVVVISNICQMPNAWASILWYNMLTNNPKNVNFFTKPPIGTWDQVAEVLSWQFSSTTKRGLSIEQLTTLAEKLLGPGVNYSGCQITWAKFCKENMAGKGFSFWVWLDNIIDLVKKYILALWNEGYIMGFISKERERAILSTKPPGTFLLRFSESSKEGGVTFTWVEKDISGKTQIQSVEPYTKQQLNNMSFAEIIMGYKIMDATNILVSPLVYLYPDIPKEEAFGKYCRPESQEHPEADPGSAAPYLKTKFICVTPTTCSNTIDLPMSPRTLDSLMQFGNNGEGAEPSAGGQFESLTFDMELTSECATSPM

SMILES: CCc1nccnc1C(=O)/C=C/c1ccc(C#N)cc1
- Activity (U-937 [1]): 3.69%
- Activity (U-937 [2]): 10.41%
- Activity (U-937 [3]): Dose-dependent-effect
- Activity (U-937 [4]): 6.11%
- viability at 0.5 µM (U-937 [5]): 82.9%
- IC50 (U-937 [6]): 0.18 µM
- Activity (U-937 [7]): 2.6%
- Activity (U-937 [8]): Dose-dependent-effect
- Activity (U-937 [9]): 6.74%
- Activity (U-937 [10]): 14.57%
- IC50 (KG-1): 3.98 µM
- Activity (U-937 [11]): Dose-dependent-effect
- Activity (U-937 [12]): Dose-dependent-effect
- Activity (U-937 [13]): 14.12%
- Activity (U-937 [14]): 6.16%
- viability at 2.5 µM (U-937 [15]): 74.2%
- IC50 (SK-OV-3): 4.71 µM
- Activity (U-937 [16]): Dose-dependent-effect
- Activity (U-937 [17]): Dose-dependent-effect
- IC50 (THP-1): 0.64 µM
- inhibition [18]: Active
- viability at 1 µM (U-937 [19]): 80.3%
- Activity (U-937 [20]): 2.84%
- Activity (U-937 [21]): 7.46%
- IC50 [22]: 5.39 µM
- Activity (U-937 [23]): 3.82%
- Activity (U-937 [24]): 8.17%

SMILES: COc1ccc(/C=C/C(=O)c2cnccn2)cc1
- IC50 (U-937 [6]): 15.2 µM
- IC50 (KG-1): 8.71 µM
- IC50 (SK-OV-3): 21.9 µM
- IC50 (THP-1): 10.3 µM
- IC50 [22]: 21.1 µM

SMILES: CCc1nccnc1C(=O)/C=C/c1ccccc1
- IC50 (U-937 [6]): 1.99 µM
- IC50 (KG-1): 3.71 µM
- IC50 (SK-OV-3): 4.54 µM
- IC50 (THP-1): 23.8 µM
- IC50 [22]: 5.4 µM

SMILES: O=C(/C=C/c1ccc(C(F)(F)F)cc1)c1cnccn1
- IC50 (U-937 [6]): 11.9 µM
- IC50 (KG-1): 7.87 µM
- IC50 (SK-OV-3): 9.72 µM
- IC50 (THP-1): 8.3 µM
- IC50 [22]: 10.4 µM

SMILES: CCc1nccnc1C(=O)/C=C/c1cccc(Cl)c1Cl
- IC50 (U-937 [6]): 4 µM
- IC50 (KG-1): 10.5 µM
- IC50 (SK-OV-3): 11.3 µM
- IC50 (THP-1): 14.5 µM
- IC50 [22]: 11.3 µM

SMILES: O=C(/C=C/c1ccccc1F)c1cnccn1
- IC50 (U-937 [6]): 11.9 µM
- IC50 (KG-1): 9.89 µM
- IC50 (SK-OV-3): 3.88 µM
- IC50 (THP-1): 11.9 µM
- IC50 [22]: 6.18 µM

SMILES: Cc1nccnc1C(=O)/C=C/c1ccc(Cl)cc1
- IC50 (U-937 [6]): 2.96 µM
- IC50 (KG-1): 10.4 µM
- IC50 (SK-OV-3): 9.75 µM
- IC50 (THP-1): 17 µM
- IC50 [22]: 11.8 µM

SMILES: O=C(/C=C/c1ccc(Cl)cc1Cl)c1cnccn1
- IC50 (U-937 [6]): 8.31 µM
- IC50 (KG-1): 6.57 µM
- IC50 (SK-OV-3): > 50 µM
- IC50 (THP-1): 6.54 µM
- IC50 [22]: > 50 µM

SMILES: Cc1ccccc1/C=C/C(=O)c1nccnc1C
- IC50 (U-937 [6]): 2.55 µM
- IC50 (KG-1): 13 µM
- IC50 (SK-OV-3): 2.59 µM
- IC50 (THP-1): 4.97 µM
- IC50 [22]: 3.8 µM

SMILES: Cc1nccnc1C(=O)/C=C/c1ccc(C#N)cc1
- IC50 (U-937 [6]): 2.08 µM
- IC50 (KG-1): 1.01 µM
- IC50 (SK-OV-3): 4.49 µM
- IC50 (THP-1): 0.72 µM
- IC50 [22]: 4.63 µM

SMILES: Cc1ccc(/C=C/C(=O)c2nccnc2C)cc1
- IC50 (U-937 [6]): 2.6 µM
- IC50 (KG-1): 3.83 µM
- IC50 (SK-OV-3): 3.83 µM
- IC50 (THP-1): 1.93 µM
- IC50 [22]: 3.3 µM

SMILES: CSc1ccc(/C=C/C(=O)c2cnccn2)cc1
- IC50 (U-937 [6]): 7.06 µM
- IC50 (KG-1): 5.56 µM
- IC50 (SK-OV-3): 6.48 µM
- IC50 (THP-1): 8.37 µM
- IC50 [22]: 8.03 µM

SMILES: O=C(/C=C/c1cccc([N+](=O)[O-])c1)c1cnccn1
- IC50 (U-937 [6]): 8 µM
- IC50 (KG-1): 10.3 µM
- IC50 (SK-OV-3): > 50 µM
- IC50 (THP-1): 5.29 µM
- IC50 [22]: > 50 µM

SMILES: CCc1nccnc1C(=O)/C=C/c1ccc(F)cc1F
- IC50 (U-937 [6]): 8.02 µM
- IC50 (KG-1): 25.7 µM
- IC50 (SK-OV-3): 5.24 µM
- IC50 (THP-1): 5.71 µM
- IC50 [22]: 7.97 µM

SMILES: O=C(/C=C/c1cc2c(cc1[N+](=O)[O-])OCO2)c1cnccn1
- IC50 (U-937 [6]): 6.87 µM
- IC50 (KG-1): 11 µM
- IC50 (SK-OV-3): 9.99 µM
- IC50 (THP-1): 2.02 µM
- IC50 [22]: 6.57 µM

SMILES: Cc1nccnc1C(=O)/C=C/c1ccc(C(C)(C)C)cc1
- IC50 (U-937 [6]): 18.5 µM
- IC50 (KG-1): 44.1 µM
- IC50 (SK-OV-3): 16.6 µM
- IC50 (THP-1): 27.2 µM
- IC50 [22]: 14.2 µM

SMILES: CCc1nccnc1C(=O)/C=C/c1cccc(F)c1
- IC50 (U-937 [6]): 0.66 µM
- IC50 (KG-1): 3.47 µM
- IC50 (SK-OV-3): 4.26 µM
- IC50 (THP-1): 6.22 µM
- IC50 [22]: 6.34 µM

SMILES: Cc1nccnc1C(=O)/C=C/c1ccccc1F
- IC50 (U-937 [6]): 22.6 µM
- IC50 (KG-1): 5.38 µM
- IC50 (SK-OV-3): 10.2 µM
- IC50 (THP-1): 5.5 µM
- IC50 [22]: 10.7 µM

SMILES: CCc1nccnc1C(=O)/C=C/c1ccccc1[N+](=O)[O-]
- IC50 (U-937 [6]): 1.46 µM
- IC50 (KG-1): 3.68 µM
- IC50 (SK-OV-3): 2.49 µM
- IC50 (THP-1): 1.5 µM
- IC50 [22]: 4.12 µM
